Data on one compound can be found in patent US10449245B2 (priority 2014, dated 2019).

The conditions of the series: human, in vivo. How it is done:
Part A of the clinical study contained three phases. First, a pre-treatment phase of 2-4 weeks (visit 1-visit 2a) to confirm the stability of the latent HIV-1 reservoir and determine baseline HIV-1 T lymphocyte specific immunity. Second, a viral reactivation phase of 3 weeks (visit 2 to visit 7) consisting of one cycle of romidepsin infusions at a dosing of 5 mg/m^2 administered intravenously over a 4 hour period. De-escalation down to 2.5 mg/m^2 was planned in case of dose-limiting toxicity was observed. Romidepsin was infused on days 0, 7, and 14. Third, a post-activation phase of ˜9 weeks (visit 8 to visit 11) to assess the effect of romidepsin on the size of latent HIV-1I reservoir.
The primary objective of this part of the study was to evaluate the safety and tolerability of romidepsin at a reduced dosing of 5 mg/m^2 in HIV-infected patients.
The primary endpoint of this part was safety and tolerability; evaluation as measured by adverse events (AE), adverse reactions (AR), serious adverse events (SAE), serious adverse reactions (SAR), serious unexpected adverse reactions (SUSAR).

As for `C/C=C1\NC(=O)[C@H]2CSSCC/C=C/[C@H](CC(=O)N[C@H](C(C)C)C(=O)N2)OC(=O)[C@H](C(C)C)NC1=O` [romidepsin, (1S,4S,7Z,10S,16E,21R)-7-ethylidene-4,21-bis(1-methylethyl)-2-oxa-12,13-dithia-5,8,20,23-tetraazabicyclo[8.7.6]tricos-16-ene-3,6,9,19,22-pentone], the “grade II AEs” value is recorded as “Two”.
